Measurements: PMC7269505, “An Engineered Double Lipid II Binding Motifs-Containing Lantibiotic Displays Potent and Selective Antimicrobial Activity against Enterococcus faecium” (Antimicrobial Agents and Chemotherapy, 2020)
Values joined by “and” are separate entries in the source; they are usually repeats but may differ in a detail not shown here. Equal values may be shown once. Read-outs that look alike come from different tables or passages of the source. No end group written: not given here.

Key:
[1] = test system: Micrococcus flavus; assay: Screening of antibacterial activity by spot-on-lawn assay; assay type: cell-based; conditions: TCA-precipitated peptide 5 μl plus 1 μl NisP, GM17 0.8% agar, 30°C overnight (Fig. S1)
Method: To assess the antibacterial activity of TCA-precipitated samples on a agar plate, an overnight culture of Micrococcus flavus was added to the GM17 containing 0.8% (wt/vol) agar (at 42°C), and then the mixture was poured onto the plates, 30 ml per plate. After that, 5 μl of the peptides together with 1 μl of NisP were added to the plates, and the plates were transferred to the 30°C incubator for incubation overnight.

[2] = Complex formation with lipid II by thin-layer chromatography; assay type: binding; conditions: TLC, lipid II-lys or lipid II-dap (Fig. 4b1 and b2), 4 nmol, 30 min at 25°C
Method: Purified lipid II-lys or lipid II-dap (4 nmol) was incubated in chloroform-methanol-water (2:3:1), in the presence of increasing TL19 concentrations (TL19/lipid II molar ratios ranging from 0.3 to 2:1) in a total volume of 30 μl. After incubating for 30 min at 25°C, the mixture was analyzed by thin-layer chromatography using chloroform-methanol-water-ammonia (88:48:10:1), and the spots were visualized by iodine vapor ([20], [26]).

[3] = test system: E. faecium LMG16003 cells; assay: Propidium iodide assay for membrane pore formation; assay type: cell-based, Enterococcus faecium; conditions: peptide 3 μM, propidium iodide 2.5 μg per ml, monitored for 3 h, excitation 533 nm, emission 617 nm
Method: The excitation and emission wavelengths on the fluorescence spectrometer were adjusted to 533 nm and 617 nm, respectively. E. faecium LMG16003 was grown to an OD600 of 0.6. To this cell suspension, propidium iodide (final concentration, 2.5 μg per ml) was added and incubated for 5 min. Peptides were added to a final concentration of 3 μM. Fluorescence was monitored for 3 h, with the peptide added after ∼60 s.

[4] = test system: E. faecium ATCC U0317 (ACRE); assay: MIC by broth microdilution; assay type: cell-based, Enterococcus faecium; conditions: cation-adjusted MHB, approx. 5 × 10^5 cells per ml, 20 h, 37°C, triplicates
Method: (§1) MIC was evaluated by broth microdilution according to the standard guidelines ([45]). Briefly, the test medium was cation-adjusted Mueller-Hinton broth (MHB). Cell concentration was adjusted to approximately 5 × 10^5 cells per ml. After 20 h of incubation at 37°C, the MIC was defined as the lowest concentration of antibiotic with no visible growth. Each experiment was performed in triplicates.

[5] = test system: Escherichia coli GSK 12; assay: MIC by broth microdilution; assay type: cell-based; conditions: cation-adjusted MHB, approx. 5 × 10^5 cells per ml, 20 h, 37°C, triplicates
Method: as §1

[6] = test system: E. faecium; assay: MIC comparison across E. faecium strains; assay type: cell-based, Enterococcus faecium; conditions: from MIC values; for higher antibacterial activity than nisin(1-22): antibiotic-resistant E. faecium
Method: as §1

[7] = test system: E. faecium (LMG16003; vancomycin-resistant strain); assay: Time-kill assay; assay type: cell-based, Enterococcus faecium; conditions: MHB, 37°C, CFU counts, triplicates
Method: This assay was performed according to a previously described procedure ([29]). An overnight culture of cells (Enterococcus faecium LMG 16003; vancomycin-resistant strain) was diluted 50-fold in MHB and incubated at 37°C with aeration at 220 rpm. Bacteria were grown to an OD of 0.5, and then the cell concentration was adjusted to ≈5 × 10^5 cells per ml. Bacteria were then challenged with nisin (20 μM), nisin(1-22) (600 μM), or TL19 (10 μM) in culture tubes at 37°C and 220 rpm. (peptides at 10× MIC, a desirable concentration at the site of infection). Bacteria not treated with peptides were used as a negative control. At desired time points, 100-μl aliquots were taken, centrifuged at 8,000 × g for 2 min, and resuspended in 100 μl of MHB. Ten-fold serially diluted samples were plated on Mueller-Hinton agar (MHA) plates. After incubating at 37°C overnight, colonies were counted and CFU per milliliter was calculated. Each experiment was performed in triplicates.

[8] = test system: E. faecium LMG16003; assay: Spot-on-lawn assay to measure peptide-lipid II complex formation; assay type: cell-based, Enterococcus faecium; conditions: peptide 1 nmol, either lipid II-lys or lipid II-dap
Method: An overnight cultured E. faecium LMG16003 was added to 0.8% MHA (wt/vol; temperature, 42°C) at a final concentration of 0.1% (vol/vol), and then the mixture was poured onto the plates (30 ml for each). Binding of peptide and lipid II was further evaluated by incubating purified lipid II with peptide in various molar ratios ranging from 0.5 to 2 with respect to the peptides (1 nmol). Subsequently, a spot-on-lawn assay was used to analyze the antimicrobial activity. After the lipid II solution drops with peptide had dried, the plates were transferred to the 37°C incubator for overnight incubation.

[9] = test system: E. faecium LMG16003; assay: Antimicrobial activity of TL19 mutants (agar spot assay, Fig. 5d); assay type: cell-based, Enterococcus faecium; conditions: 1 nmol peptide, after removal of the leader peptide with NisP (Fig. 5d)
From the text: A highly conserved glutamate in HalA1 (Glu22) is essential for binding to its target lipid II ([12], [15], [16]). Mutating the glutamate residue in the CTLTXEC motif to alanine or glutamine completely abolished antibacterial activity ([15]). […] Therefore, either Glu34 in TL19 was mutated to Ala, Thr2 in TL19 was mutated to Asp, or both mutations were installed together in the same TL19 variant. […] NisC-catalyzed cyclization of the mutated peptides was investigated using CDAP treatment under reducing conditions followed by MS analysis.
FIG 5 Importance of both lipid II binding motifs for antimicrobial activity against E. faecium LMG16003. MALDI-TOF MS data of TL19 or TL19 mutants before (blue) and after (red) treated with CDAP. (a) TL19 (2Asp); (b) TL19 (34Ala); (c) TL19 (2Asp, 34Ala). (d) Antimicrobial activity for TL19 mutants against E. faecium LMG16003: 1, TL19 (1 nmol); 2, TL19 (2Asp) (1 nmol); 3, TL19 (34Ala) (1 nmol); 4, TL19 (2Asp, 34Ala) (1 nmol); 5, TL19 (2Asp) (1 nmol) plus TL19 (34Ala) (1 nmol); 6, negative control (buffer).

[10] = test system: E. faecalis LMG16216 (VRE); assay type: cell-based, Enterococcus faecalis
Method: as §1

[11] = test system: E. faecalis LMG8222; assay type: cell-based, Enterococcus faecalis
Method: as §1

[12] = test system: E. faecalis LMGV583; assay type: cell-based, Enterococcus faecalis
Method: as §1

[13] = test system: B. cereus ATCC 14579; assay type: cell-based, Bacillus cereus
Method: as §1

[14] = test system: B. cereus ATCC 10987; assay type: cell-based, Bacillus cereus
Method: as §1

[15] = test system: S. aureus LMG10147; assay type: cell-based, Staphylococcus aureus
Method: as §1

[16] = test system: A. baumannii LMG01041; assay type: cell-based, Acinetobacter baumannii
Method: as §1

[17] = test system: E. faecium ATCC E1321 (AGRE); assay type: cell-based, Enterococcus faecium
Method: as §1

[18] = test system: E. faecium 4Tom19; assay type: cell-based, Enterococcus faecium
Method: as §1

[19] = test system: E. faecium LMG11423; assay type: cell-based, Enterococcus faecium
Method: as §1

[20] = test system: E. faecium ATCC TX0082 (AEKVRE); assay type: cell-based, Enterococcus faecium
Method: as §1

[21] = test system: E. faecium ATCC TX0133a04; assay type: cell-based, Enterococcus faecium
Method: as §1

[22] = test system: E. faecium LMG16003 (VRE); assay type: cell-based, Enterococcus faecium
Method: as §1

[23] = test system: E. faecium ATCC E1162 (ARE); assay type: cell-based, Enterococcus faecium
Method: as §1

[24] = test system: E. faecium ATCC HF50105 (ETVRE); assay type: cell-based, Enterococcus faecium
Method: as §1

[25] = test system: E. faecium 6Tom18; assay type: cell-based, Enterococcus faecium
Method: as §1

[26] = broth microdilution, cation-adjusted MHB, approx. 5 × 10^5 cells per ml, 20 h, 37°C, triplicates

ITSISLCTPGCKTGALMGCNMKTATCHYCTLTVECMPSCN (also: bicyclic or more (positions not given here)) [TL19, lantibiotic with seven thioether rings]
antimicrobial activity against Micrococcus flavus [1]: potent antimicrobial activity
lipid II migration at a low ratio (0.3:1) of TL19 to lipid II [2]: lipid II migration was significantly inhibited
pore formation (propidium iodide fluorescence increase) [3]: neither TL19 nor nisin(1-22) caused any fluorescence increase
MIC [4]: 1.9 μM and 7.6 μg/ml
MIC [5]: > 15 μM and > 60 μg/ml
higher antibacterial activity than TL17 ([6]; E. faecium): 4 fold
higher antibacterial activity than nisin(1-22) [6]: 64 fold
time to complete killing ([7]; 10× MIC: nisin 20 μM, TL19 10 μM, ≈5 × 10^5 cells per ml): 24 h
antibacterial activity upon addition of lipid II at a 1:1 (peptide/lipid II) ratio [8]: still showed potent antibacterial activity

IDSISLCTPGCKTGALMGCNMKTATCHYCTLTVACMPSCN [TL19 (2Asp, 34Ala)]
antimicrobial activity relative to TL19 [9]: decreased or completely abolished the antimicrobial activity

ITSISLCTPGCKTGALMGCNMKTATCHYCTLTVACMPSCN [TL19 (34Ala)]
antimicrobial activity relative to TL19 [9]: severely reduced the antimicrobial activity

IDSISLCTPGCKTGALMGCNMKTATCHYCTLTVECMPSCN [TL19 (2Asp), TL19 variant in which Thr2 was mutated to Asp]
antimicrobial activity relative to TL19 [9]: almost abolished the antimicrobial activity

C=C1NC(=O)[C@H]([C@@H](C)CC)NC(=O)[C@H](NC(=O)/C(=C/C)NC(=O)[C@@H](N)[C@@H](C)CC)CSC[C@@H](C(=O)N[C@H]2C(=O)N3CCC[C@H]3C(=O)NCC(=O)N[C@H](C(=O)N[C@@H](CCCCN)C(=O)N[C@H]3C(=O)NCC(=O)N[C@@H](C)C(=O)N[C@@H](CC(C)C)C(=O)N[C@@H](CCSC)C(=O)NCC(=O)N[C@H](C(=O)N[C@@H](CC(N)=O)C(=O)N[C@@H](CCSC)C(=O)N[C@@H](CCCCN)C(=O)O)CS[C@H]3C)CS[C@H]2C)NC(=O)[C@H](CC(C)C)NC1=O [Nisin(1-22), reference compound]
pore formation (propidium iodide fluorescence increase) [3]: neither TL19 nor nisin(1-22) caused any fluorescence increase
MIC [5]: > 128 µg/mL
MIC ([10]; LMG16216, 20 h): > 60 µM
MIC [10, 26]: > 128 µg/mL
MIC ([11]; LMG8222, 20 h): > 60 µM
MIC [11, 26]: > 128 µg/mL
MIC ([12]; LMGV583, 20 h): > 60 µM
MIC [12, 26]: > 128 µg/mL
MIC ([13]; ATCC 14579, 20 h): 30 µM
MIC [13, 26]: 64 µg/mL
MIC ([14]; ATCC 10987, 20 h): > 60 µM
MIC [14, 26]: > 128 µg/mL
effect on population of viable cells within 11 h postexposition ([7]; 10× MIC: nisin(1-22) 600 μM): did not reduce the population of viable cells
killing in 48 h ([7]; 10× MIC: nisin(1-22) 600 μM): only slight killing was observed
MIC ([15]; LMG10147, 20 h): 15 µM
MIC [15, 26]: 32 µg/mL
MIC ([16]; LMG01041, 20 h): > 60 µM
MIC [16, 26]: > 128 µg/mL
MIC ([17]; ATCC E1321, 20 h): 60 µM
MIC [17, 26]: 128 µg/mL
MIC ([18]; 4Tom19, 20 h): 60 µM
MIC [18, 26]: 128 µg/mL
MIC ([19]; LMG11423, 20 h): 60 µM
MIC [19, 26]: 128 µg/mL
MIC ([20]; ATCC TX0082, 20 h): 60 µM
MIC [20, 26]: 128 µg/mL
MIC ([21]; ATCC TX0133, 20 h): 60 µM
MIC [21, 26]: 128 µg/mL
MIC ([22]; LMG16003, 20 h): 60 µM
MIC [22, 26]: 128 µg/mL
MIC ([23]; ATCC E1162, 20 h): > 60 µM
MIC [23, 26]: > 128 µg/mL
MIC ([24]; ATCC HF50105, 20 h): 30 µM
MIC [24, 26]: 64 µg/mL
MIC ([25]; 6Tom18, 20 h): 30 µM
MIC [25, 26]: 64 µg/mL

ITSISLCTPGCKTGALMGCNMKTATCHCTLTVECMPSCN (also: bicyclic or more (positions not given here)) [TL17, incompletely modified, not all rings formed]
antimicrobial activity against Micrococcus flavus [1]: potent antimicrobial activity
MIC [4]: 7.5 μM and 29 μg/ml
MIC [5]: > 15 μM and > 58 μg/ml
higher antibacterial activity than nisin(1-22) [6]: 16 fold
